What was measured:
[1] = test system: sweetness of orange juice beverage; assay: Panel sweetness of 75% orange juice with Compound 3 compared to 100% orange juice; type: in vivo
Description: Concentrated citrus juice (e.g., orange juice concentrate and lemon juice concentrate) can be used to emulsify flavor oils directly. Dilutions of the Compound 3 were made by dissolving the compound into NEOBEE® M-5 oil at 20 mg/ml and into triacetin at 40 mg/ml. These dilutions were then added to orange juice concentrate (60 brix and 63 brix) and lemon juice concentrate (400 gpl) to deliver a final concentration of 15-30 ppm Compound 3, and blended with the Silverson High Shear Mixer. The juices were diluted to their single strength levels (or less) for final consumption.
In one example, Compound 3 was dissolved into triacetin at a concentration of 40 mg/ml. The Compound 3-triacetin mixture was added to orange juice concentrate (1+3 throw) and blended using a high shear mixer. The concentrate was then diluted to a 75% juice product (8.85 brix) and compared to single strength orange juice (11.8 brix). The test sample contained Compound 3 at 20 ppm. Other test variables using 1+5 were included in the panel. Tests were performed with just Compound 3 in orange juice at full strength and 75%. Compound 3 was dosed at 20 and 30 ppm, and the resulting solutions were tested at day 1, 7, 14, and 21. N varied between 9 and 14 panelists.

[2] = Beverage emulsion delivery systems, physical stability; type: physicochemical; settings: NEOBEE® M-5 oil phase with Q-NATURALE®, no weighting agent
Description: Utilizing the triacetin and NEOBEE® M-5 oil solutions described in Example 6, emulsion systems were prepared to develop a clear delivery system. A suitable emulsion system would need to have a particle size of under 100 nanometers. A series of trials were conducted in which the triacetin and NEOBEE® M-5 oil solutions were combined with a variety of matrices including preserved water (i.e., water comprising 500 ppm sodium benzoate, 400 ppm potassium sorbate and 1000 ppm citric acid), Q-[…]®, lecithin, lyso-lecithin, and citrus oil. Pre-homogenization utilizing a Silverson High Shear mixer and final homogenization utilizing a high pressure homogenizer at 20,000 psi (up to 10 passes) only achieved a particle size reduction to 146 nanometers. The emulsions were stable in beverage but were opaque. […] Therefore incorporating the compounds into a cloudy beverage emulsion or homogenizing it into a cloudy citrus (orange juice) product may be beneficial. Without being bound by theory, the opacity of the beverage would, in effect, shield the compound from the detriment of light.
For a standard beverage emulsion, the compounds need to be dissolved in the oil phase of the emulsion. Unfortunately, the compounds were mostly insoluble in citrus oil (orange oil 5×). […]

[3] = Solubilization of the compounds in solvents/solubilizers and clarity in lemon-lime beverage; type: physicochemical; settings: for Time final beverage remained a clear solution: sucrose co-melt (caramel-melts), Q-NATURALE® 200
Description: To identify a sufficient delivery mechanism for the sweet enhacing compounds of the present invention, several method of solublization were tested for use in clear beverages. The overall goal was to solubilize the compounds of the invention and have them be deliverable in a clear, carbonated beverage, which can be sweetened with various forms of nutritive and non-nutritive sweeteners without negative flavor impact, i.e. no loss in efficacy (the sweetness perception increase) and no off-flavor formation. In particular, the goal was to identify a delivery mechanism that would allow the compounds to be delivered to the beverage at an “as consumed” level between 10 ppm and 50 ppm. […] The carrier ingredients should not impart any negative physical attributes or negative flavor attributes to the product. An ideal delivery system would not require the labeling of any carrier ingredients and would work with a beverage concentrate model system, preferably a 1+5 concentrate throw.
Initial trials were conducted to dissolve the compound in various flavor type solvents, including ethanol, 200 proof; triacetin; propylene glycol; lemon-lime flavor extract; lemon oil (washed); citrus oil; polysorbate 80; polysorbate 60; polysorbate 20; benzyl alcohol; and NEOBEE® M-5 oil.
In polysorbate formulations, Compound 3 and the polysorbates were accurately weighed into screw-capped glass vials according to Table 8 and heated at 70-90° C. and vortex mixed to facilitate the solubilization. The resulting mixtures were blended into 41.5 brix lemon-lime flavored beverage syrup under stirring and stored overnight at room temperature. The syrup was diluted with 5× water to achieve the final 7.7 brix lemon-lime beverage.
For example, Compound 3 and polysorbate 80 were accurately weighed into screw-capped glass vials according to Table 9 and heated at 70-90° C. and vortex mixed to facilitate the solubilization. Q-[…]® was added to the 41.5 brix lemon-lime flavored beverage syrup. The polysorbate 80 mixtures were blended into 41.5 brix lemon-lime flavored beverage syrup with Q-[…]® 200 and vortex mixed at 3000 rpm for 75 seconds. The resulting syrups were stored overnight at room temperature. The syrup was then diluted with 5× water to achieve the final 7.7 brix lemon-lime beverage. […] Solution PQ2 was able to maintain clear solution for 1 month.
Because Q-[…]® was able to maintain the stability of the sweet enhancing compounds, it was evaluated in combination with additional solvents. […] In another example, Compound 3, Q-[…]®, and either 1,2-propylene glycol or ethanol 200 proof were accurately weighed into screw-capped glass vials according to Table 10 and heated and vortex mixed to facilitate the solubilization. The resulting solution mixtures were blended into 41.5 brix lemon-lime flavored beverage syrup and vortexed at 3000 rpm for 75 seconds. The resulting syrups were stored overnight at refrigerated temperature and diluted with 5× water to achieve the final 7.7 brix lemon-lime beverage. All solutions (i.e., PGEQ1-PGEQ4) were able to maintain clear solution for 33 days at room temperature and 14 days at refrigerated temperature.
In another example, 40 mg Compound 3 and 1 g rubusoside were weighed into 20 ml glass vials. 20 ml water was added to the vial, which was vortex mixed slightly to form a suspension solution. The suspension was homogenized at 8000 rpm using a Silverson L5M-A to from an emulsion. The emulsion was heated at 121° C. for 1 h. The sample after heating was suspended at room temperature for 24 h to equilibrate and was filtered afterward. The weight ratio between rubusoside and Compound 3 was determined to be 147:1. Therefore, […] rubusoside was needed to solubilize 25 ppm Compound 3.
The ability of sugar to co-melt with compounds of the invention was also evaluated. 30 mg Compound 3 and 150 mg sucrose were dissolved in a solvent mixture of 9 ml ethanol and 1 ml water. […]

[4] = heated at 70-90° C., vortex mixed

COc1ccc(C2CC(=O)c3c(O)cccc3O2)cc1O (single isomer, unassigned) [Compound 3, 5-hydroxy-2-(3-hydroxy-4-methoxyphenyl)chroman-4-one]
Relative Sweetness Compared to Control (100% OJ) ([1]; T1: 75% OJ w/20 ppm, Fresh, Day 1 (Fresh)): Same as Control | Relative Sweetness Compared to Control (100% OJ) ([1]; T2: 75% OJ w/30 ppm, Aged, Day 21): added sweetness | Relative Sweetness Compared to Control (100% OJ) ([1]; T2: 75% OJ w/30 ppm, Fresh, Day 1 (Fresh)): Same as Control | Physical stability of emulsion [2]: physically stable | Precipitation of final beverages ([3]; encapsulated with alpha-, beta-, gamma-cyclodextrin (molar 1:1, 1:2, 1:4), 25 ppm in 7.7 brix lemon-lime beverage): had precipitates | Dissolution in polysorbate 20 [3, 4]: did not dissolve | Dissolution in polysorbate 60 [3, 4]: did not dissolve | Precipitation in final beverages ([3]; polysorbate 80 solutions PS1-PS6, 7.7 brix lemon-lime beverage): precipitated overnight | Time final beverage remained a clear solution ([3]; 7.7 brix lemon-lime beverage, refrigerated temperature): 14 days | Time final beverage remained a clear solution ([3]; 7.7 brix lemon-lime beverage, room temperature): 30 days

From US20160015064A1, “COMPOUNDS, COMPOSITIONS, AND METHODS FOR MODULATING SWEET TASTE” (CHROMOCELL CORPORATION, priority 2013, published 2016)
